Values after ≈ are worked out from the molar mass of the structure shown. Marks after values point to notes of the source that are not given here.
Tests used:
[1] = tested on: Staphylococcus aureus (Smith strain); assay: Protection of mice from lethal intraperitoneal infection, compound given intraperitoneally; assay type: in vivo; details: Swiss Webster mice, groups of five, 15 minutes after infection
Procedure: • Figures 1A and 1B. Figure 1A is a diagram of the structural formula for Compound 2 (i.e., 3-{4-[1-(1-cyclopropyl-3-carboxy-4-oxo-6-fluoro-7-quinolyl)-4-piperazinyl]butyl}-6-(3-ethyl- 4-methylanilino)uracil). • Figure 1B is a bar graph showing number of survivors in each group of five mice at 24 hours after intraperitoneal infection with 1 x 10^8 colony forming units (CFU) of Staphylococcus aureus (Smith strain) and followed 15 minutes post infection by administration of Compound 2 at a dose of 0 (Vehicle Control), 1, 3, and 10 mg of compound per kg of body weight. Vancomycin at a dose of 10 mg/kg of body weight served as a positive control for antibiotic activity. See text for details. • Figures 2A and 2B. Figure 2A is a diagram of the structural formula for Compound 10 (i.e., 3-{4-[1-(1-cyclopropyl-3-carboxy-4-oxo-6-fluoro-7-quinolyl)-4-piperazinyl]butyl}-6-(3-ethyl-4-methylanilino)uracil methanesulfonate). • Figure 2B is a bar graph showing number of survivors of a group of five mice at 24 hours after intraperitoneal infection with Staphylococcus aureus (Smith strain) as in Figure 1B, except that Compound 10 was administered to each animal at 0, 0.1, 0.3, 1.0, 3.0, and 10 mg/kg body weight at 15 minutes post infection. Controls were the same as in Figure 1B. See text for details. • Figures 3A and 3B. […] Abbreviations: cPr is cyclopropyl; Et is ethyl; dFPh is 2,4-difluorophenyl. • Figure 3B is a bar graph showing number of survivors in each group of five mice at 24 hours after intraperitoneal infection with Staphylococcus aureus (Smith strain) as in Figure 1, except that 15 minutes after infection, the mice in each group received a dose of 0.5 mg/kg of body weight of compound 10, 4, 5, 6, 7, 8, or 12. Controls were the same as in Figure 1. See text for details.
(§1) Swiss Webster mice, ca. 20 g each, were infected with Staphylococcus aureus (Smith strain) by the intraperitoneal route. Test compounds (2, 4, 5, 6, 7, 8, 10, 12) were dissolved in 10% dimethylsulfoxide in peanut oil to a concentration of 2 mg/ml. Vancomycin was used as positive control drug (i.e., protection from lethal infection). Fifteen minutes after infection, test compounds, vancomycin, or vehicle alone were given intraperitoneally to groups of five mice each. Animals were monitored for three days, and the number of mice surviving was tabulated for each treatment.

MSSA108 = assay: MIC against clinically relevant strains; assay type: cell-based; details: Staphylococcus aureus; methicillin sensitive S. aureus strain
[2] = tested on: Staphylococcus aureus (Smith); assay: In vivo efficacy of Compound 70 in mouse models; details: mice, 10^8 CFU/mouse, regimen 1 (t=0)
Procedure: as §1
(§2) Using the same basic procedure as described above, the in vivo efficacy of Compound 70 was also evaluated at various doses in mice infected with S. aureaus (Smith), MRSA 1094, Enterococcus faecalis, or vancomycin-resistant Enterococcus faecalis strain VRE 700802. […] Negative controls were mice infected that received no treatment. Mucin was employed as an adjuvant to facilitate bacterial infection in mice, where indicated.

[3] = tested on: Enterococcus faecalis (ATCC 29212); assay: In vivo efficacy of Compound 70 in mouse models; details: mice, 3x10^7 CFU/mouse + 5% Mucin
Procedure: as §1, §2

[4] = tested on: enterococci or staphylococci strains, including MRSA and VRE strains; assay: In vivo efficacy of Compound 70 in mouse models, overall statement; details: mice; administration from distant parenteral sites (i.e., iv, sc, or im)
Procedure: as §2

[5] = dosage range 1-10 mg/kg body weight intraperitoneally

| Structure (SMILES) | protection of infected mice (number of survivors) [1, 5] | MIC (MSSA108) [µg/mL] | protection of infected mice (number of survivors) ([1]; 0.3 mg per kg body weight intraperitoneally) | protection of infected mice (number of survivors) ([1]; 1 mg/kg or higher intraperitoneally) | % Survival at 72 hours ([2]; dose 3.125 mg/kg) | % Survival at 72 hours ([2]; dose 12.5 mg/kg) | % Survival at 72 hours ([2]; dose 25 mg/kg) | % Survival at 72 hours ([2]; dose 50 mg/kg) | % Survival at 72 hours ([3]; dose 25 mg/kg, regimen 1 (t=0)) | % Survival at 72 hours ([3]; dose 25 mg/kg, regimen 2 (t=0,2)) | % Survival at 72 hours ([3]; dose 50 mg/kg, regimen 1 (t=0)) | % Survival at 72 hours ([3]; dose 50 mg/kg, regimen 2 (t=0,2)) | % Survival at 72 hours ([3]; dose 75 mg/kg, regimen 1 (t=0)) | activity against intra-peritoneal challenge [4] |
| --- | --- | --- | --- | --- | --- | --- | --- | --- | --- | --- | --- | --- | --- | --- |
| CCc1cc(Nc2cc(=O)n(CCCCN3CCN(c4cc5c(cc4F)c(=O)c(C(=O)O)cn5C4CC4)CC3)c(=O)[nH]2)ccc1C [Compound 2, 3-{4-[1-(1-cyclopropyl-3-carboxy-4-oxo-6-fluoro-7-quinolyl)-4-piperazinyl]butyl}-6-(3-ethyl-4-methylanilino)uracil] | all five | 0.313 (≈ 0.496 µM) | – | – | – | – | – | – | – | – | – | – | – | – |
| CCc1cc(Nc2cc(=O)n(CCCCN3CCN(c4cc5c(cc4F)c(=O)c(C(=O)O)cn5C4CC4)CC3)c(=O)[nH]2)ccc1C.CS(=O)(=O)O [Compound 10, 3-{4-[1-(1-cyclopropyl-3-carboxy-4-oxo-6-fluoro-7-quinolyl)-4-piperazinyl]butyl}-6-(3-ethyl-4-methylanilino)uracil methanesulfonate] | provided protection in the same dosage range as Compound 2 | 0.625 | one of five | complete protection | – | – | – | – | – | – | – | – | – | – |
| CCc1cc(Nc2cc(=O)n(CCCCN3CCN(c4c(F)cc5c(=O)c(C(=O)O)cn(C6CC6)c5c4F)CC3C)c(=O)[nH]2)ccc1C (stereo not shown) [Compound 70, 3-{4-[1-(1-cyclopropyl-3-carboxy-4-oxo-6,8-difluoro-7-quinolyl)-3-methyl-4-piperazinyl]butyl}-6-(3-ethyl-4-methylanilino)uracil] | – | – | – | – | 0% (0/5) | 40% (6/15) | 100% (20/20)** | 100% (10/10)** | 40% (2/5) | 40% (2/5) | 60% (3/5) | 80% (8/10)** | 80% (4/5) | dose-related activity |
